# Reference: US20240349726A1, “SUBSTITUTED 1,2,4-THIADIAZOLYL NICOTINAMIDES, SALTS OR N-OXIDES THEREOF AND THEIR USE AS HERBICIDALLY ACTIVE SUBSTANCES” (Bayer Aktiengesellschaft, priority 2021, published 2024)
# Columns and labels:
# Type in all cases: in vivo
# Matricaria inodora [1] = assay: Herbicidal pre-emergence action, MATIN; conditions: visual grading after ca. 3 weeks vs untreated controls
# From the text: (§1) Seeds of mono- and dicotyledonous weed plants were sown in plastic pots (double sowings with one species of mono- and one species of dicotyledonous weed plants per pot), in sandy loam, and covered with soil. The compounds according to the invention, formulated in the form of wettable powders (WP) or as emulsifiable concentrates (EC), were applied to the surface of the covering soil as an aqueous suspension or as an emulsion, with the addition of 0.5% of an additive, at an application rate of 600 litres of water per hectare (converted). Following treatment, the pots were placed in a greenhouse and kept under optimum growth conditions for the test plants. The visual grading of the damage to the test plants is carried out after ca. 3 weeks in comparison to untreated controls (herbicidal effect in percent (%): 100% effect=plants have died, 0% effect=as control plants). Seeds of mono- and dicotyledonous weed plants were sown in plastic pots (double sowings with one species of mono- and one species of dicotyledonous weed plants per pot), in sandy loam, and covered with soil. The compounds according to the invention, formulated in the form of wettable powders (WP) or as emulsifiable concentrates (EC), were applied to the surface of the covering soil as an aqueous suspension or as an emulsion, with the addition of 0.5% of an additive, at an application rate of 600 litres of water per hectare (converted). Following treatment, the pots were placed in a greenhouse and kept under optimum growth conditions for the test plants. The visual grading of the damage to the test plants is carried out after ca. 3 weeks in comparison to untreated controls (herbicidal effect in percent (%): 100% effect=plants have died, 0% effect=as control plants).
# Stellaria media [2] = assay: Herbicidal pre-emergence action, STEME; conditions: visual grading after ca. 3 weeks vs untreated controls
# From the text: as §1
# Amaranthus retroflexus [3] = assay: Herbicidal pre-emergence action, AMARE; conditions: visual grading after ca. 3 weeks vs untreated controls
# From the text: as §1
# Matricaria inodora [4] = assay: Herbicidal post-emergence action, MATIN; conditions: assessed visually after ca. 3 weeks vs untreated controls
# From the text: (§2) Seeds of mono- and dicotyledonous weed plants were sown in plastic pots (double sowings with one species of mono- and one species of dicotyledonous weed plants per pot), in sandy loam, covered with soil and grown under controlled growth conditions. 2 to 3 weeks after sowing, the test plants were sprayed in the single-leaf stage. The compounds according to the invention, formulated in the form of wettable powders (WP) or as emulsifiable concentrates (EC), were sprayed onto the green plant parts as an aqueous suspension or as an emulsion, with the addition of 0.5% of an additive, at an application rate of 600 litres of water per hectare (converted). The test plants were placed in the greenhouse for ca. 3 weeks under optimum growth conditions, and then the effect of the preparations is assessed visually in comparison with untreated controls (herbicidal effect in percent (%): 100% effect=plants have died, 0% effect=as control plants). […]
# Stellaria media [5] = assay: Herbicidal post-emergence action, STEME; conditions: assessed visually after ca. 3 weeks vs untreated controls
# From the text: as §2
# Veronica persica [6] = assay: Herbicidal post-emergence action, VERPE; conditions: assessed visually after ca. 3 weeks vs untreated controls
# From the text: as §2
# Amaranthus retroflexus [7] = assay: Herbicidal post-emergence action, AMARE; conditions: assessed visually after ca. 3 weeks vs untreated controls
# From the text: as §2
# Alopecurus myosuroides = assay: Herbicidal post-emergence action, ALOMY; conditions: 1280 g/ha, assessed visually after ca. 3 weeks vs untreated controls
# From the text: as §2
# Abutilon theophrasti = assay: Herbicidal post-emergence action, ABUTH; conditions: assessed visually after ca. 3 weeks vs untreated controls
# From the text: as §2
# Kochia scoparia = assay: Herbicidal post-emergence action, KCHSC; conditions: assessed visually after ca. 3 weeks vs untreated controls
# From the text: as §2
# Veronica persica [8] = assay: Herbicidal pre-emergence action, VERPE; conditions: 1280 g/ha, visual grading after ca. 3 weeks vs untreated controls
# From the text: as §1
# Poa annua [9] = assay: Herbicidal pre-emergence action, POAAN; conditions: visual grading after ca. 3 weeks vs untreated controls
# From the text: as §1
# Lolium rigidum [10] = assay: Herbicidal pre-emergence action, LOLRI; conditions: visual grading after ca. 3 weeks vs untreated controls
# From the text: as §1
# Poa annua [11] = assay: Herbicidal post-emergence action, POAAN; conditions: assessed visually after ca. 3 weeks vs untreated controls
# From the text: as §2
# Lolium rigidum [12] = assay: Herbicidal post-emergence action, LOLRI; conditions: 1280 g/ha, assessed visually after ca. 3 weeks vs untreated controls
# From the text: as §2
# Setaria viridis = assay: Herbicidal pre-emergence action, SETVI; conditions: 1280 g/ha, visual grading after ca. 3 weeks vs untreated controls
# From the text: Seeds of mono- and dicotyledonous weed plants were sown in plastic pots (double sowings with one species of mono- and one species of dicotyledonous weed plants per pot), in sandy loam, and covered with soil. The compounds according to the invention, formulated in the form of wettable powders (WP) or as emulsifiable concentrates (EC), were applied to the surface of the covering soil as an aqueous suspension or as an emulsion, with the addition of 0.5% of an additive, at an application rate of 600 litres of water per hectare (converted). Following treatment, the pots were placed in a greenhouse and kept under optimum growth conditions for the test plants. The visual grading of the damage to the test plants is carried out after ca. 3 weeks in comparison to untreated controls (herbicidal effect in percent (%): 100% effect=plants have died, 0% effect=as control plants).
SMILES,herbicidal effect MATIN (Matricaria inodora [1]; 1280 g/ha) [%],herbicidal effect STEME (Stellaria media [2]; 320 g/ha) [%],herbicidal effect STEME (Stellaria media [2]; 1280 g/ha) [%],herbicidal effect AMARE (Amaranthus retroflexus [3]; 1280 g/ha) [%],herbicidal effect MATIN (Matricaria inodora [4]; 1280 g/ha) [%],herbicidal effect STEME (Stellaria media [5]; 1280 g/ha) [%],herbicidal effect VERPE (Veronica persica [6]; 1280 g/ha) [%],herbicidal effect AMARE (Amaranthus retroflexus [7]; 1280 g/ha) [%],herbicidal effect KCHSC (Kochia scoparia; 1280 g/ha) [%],herbicidal effect AMARE (Amaranthus retroflexus [7]; 320 g/ha) [%],herbicidal effect POAAN (Poa annua [9]; 1280 g/ha) [%],herbicidal effect LOLRI (Lolium rigidum [10]; 1280 g/ha) [%],further results
"Cc1cc(Cl)nc(Cl)c1C(=O)Nc1ncns1 [Example I-020, 2,6-dichloro-4-methyl-N-(1,2,4-thiadiazol-5-yl)pyridine-3-carboxamide]",90,90,100,90,90,90,100,90,,,,,
Cc1nsc(NC(=O)c2c(C(F)(F)F)ccnc2F)n1 [Example I-008],,,90,90,,100,90,100,,,,,herbicidal effect ALOMY (Alopecurus myosuroides): 90%; herbicidal effect STEME (Stellaria media [5]; 320 g/ha): 90%
O=C(Nc1nc(C(F)(F)F)ns1)c1cnccc1C(F)(F)F [Example I-013],,,,100,100,100,100,100,100,90,,,herbicidal effect ABUTH (Abutilon theophrasti; 1280 g/ha): 100%; herbicidal effect MATIN (Matricaria inodora [4]; 320 g/ha): 100%; herbicidal effect VERPE (Veronica persica [6]; 320 g/ha): 100%
Cc1ccnc(Cl)c1C(=O)Nc1ncns1 [Example I-003],100,,100,100,,90,100,90,,90,100,,herbicidal effect VERPE (Veronica persica [8]): 90%; herbicidal effect VERPE (Veronica persica [6]; 320 g/ha): 90%
Cc1cc(F)ncc1C(=O)Nc1ncns1 [Example I-023],100,,90,90,,,,90,,,100,,
"CC(C)c1ccnc(Cl)c1C(=O)Nc1ncns1 [Example I-026, 2-chloro-4-isopropyl-N-(1,2,4-thiadiazol-5-yl)pyridine-3-carboxamide]",100,90,100,100,,100,90,100,90,90,,100,
CCc1ccnc(Cl)c1C(=O)Nc1ncns1 [Example I-004],90,,100,90,,,100,100,,,90,100,herbicidal effect POAAN (Poa annua [11]; 1280 g/ha): 100%
COc1nccc(C(F)(F)F)c1C(=O)Nc1ncns1 [Example I-010],100,,90,,,,100,100,100,100,100,100,herbicidal effect VERPE (Veronica persica [6]; 320 g/ha): 100%; herbicidal effect POAAN (Poa annua [11]; 320 g/ha): 90%; herbicidal effect POAAN (Poa annua [11]; 1280 g/ha): 90%
O=C(Nc1ncns1)c1c(C(F)(F)F)ccnc1Cl [Example I-021],100,90,100,100,100,100,100,100,100,100,100,100,herbicidal effect LOLRI (Lolium rigidum [10]; 320 g/ha): 90%; herbicidal effect MATIN (Matricaria inodora [1]; 320 g/ha): 90%; herbicidal effect VERPE (Veronica persica [8]): 90%; herbicidal effect POAAN (Poa annua [9]; 320 g/ha): 90%; herbicidal effect ABUTH (Abutilon theophrasti; 320 g/ha): 90%; herbicidal effect ABUTH (Abutilon theophrasti; 1280 g/ha): 100%; herbicidal effect KCHSC (Kochia scoparia; 320 g/ha): 90%; herbicidal effect LOLRI (Lolium rigidum [12]): 90%; herbicidal effect MATIN (Matricaria inodora [4]; 320 g/ha): 100%; herbicidal effect STEME (Stellaria media [5]; 320 g/ha): 90%; herbicidal effect VERPE (Veronica persica [6]; 320 g/ha): 100%; herbicidal effect POAAN (Poa annua [11]; 1280 g/ha): 100%
O=C(Nc1ncns1)c1cnccc1C(F)(F)F [Example I-001],100,100,100,100,100,100,,90,,,100,100,herbicidal effect SETVI (Setaria viridis): 90%; herbicidal effect POAAN (Poa annua [9]; 320 g/ha): 100%; herbicidal effect AMARE (Amaranthus retroflexus [3]; 320 g/ha): 100%; herbicidal effect LOLRI (Lolium rigidum [12]): 90%; herbicidal effect MATIN (Matricaria inodora [4]; 320 g/ha): 90%; herbicidal effect STEME (Stellaria media [5]; 320 g/ha): 100%; herbicidal effect POAAN (Poa annua [11]; 320 g/ha): 100%; herbicidal effect POAAN (Poa annua [11]; 1280 g/ha): 100%
Cc1ccncc1C(=O)Nc1ncns1 [Example I-011],90,90,90,100,,,,,,,100,,herbicidal effect POAAN (Poa annua [9]; 320 g/ha): 90%
"Cc1ccnc(Br)c1C(=O)Nc1ncns1 [Example I-022, 2-bromo-4-methyl-N-(1,2,4-thiadiazol-5-yl)pyridine-3-carboxamide]",,,100,,,90,,90,,,,,
O=C(Nc1ncns1)c1cnc(Cl)cc1C(F)(F)F [Example I-024],90,,,,100,,90,90,,,,,herbicidal effect MATIN (Matricaria inodora [4]; 320 g/ha): 90%
COc1nccc(C(C)C)c1C(=O)Nc1ncns1 [Example I-027],,,90,,,,,,,,,,
O=C(Nc1nc(Br)ns1)c1cnccc1C(F)(F)F [Example I-014],,,,,100,100,100,100,90,,,,herbicidal effect STEME (Stellaria media [5]; 320 g/ha): 90%
